According to patent publication US8299267B2, “(3-hydroxy-4-amino-butan-2-yl) -3- (2-thiazol-2-yl-pyrrolidine-1-carbonyl) benzamide derivatives and related compounds as beta-secretase inhibitors for treating” (CoMentis, Inc., priority 2007, dated 2012):

Key:
[1] = tested on: Aβ production in Chinese hamster ovary cells that over-express human APP695 with the London and Swedish mutations; test: Cellular Aβ IC50 determination (Aβ40 sandwich ELISA); type: cell-based; conditions: Cricetulus griseus; Aβ40 in CHO cells over-expressing human APP695, 24 h incubation
Method in brief: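 APP695 (London/Swedish)-overexpressing CHO cells were treated 48 h after seeding with serial dilutions from near 4 μM top concentration (0.4% DMSO) for 24 h at 37 °C. Secreted Aβ40 was quantified by sandwich ELISA relative to controls and fit to a 4-parameter IC50 model.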

[2] = target: memapsin 2 (Homo sapiens, UniProt P56817); test: Inhibition of memapsin 2 beta-secretase activity toward fluorogenic substrate FS-2; type: biochemical; conditions: memapsin 2, pH 4, 37° C., 20 minutes pre-incubation, substrate FS-2; read-out: M2Ki
Method in brief: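 Memapsin 2 was preincubated with compound 20 min at pH 4, 37 °C, then reacted with fluorogenic substrate FS-2 (MCA-SEVNLDAEFK-DNP), an APP-derived Swedish-variant peptide. Inhibition was followed kinetically by fluorescence.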

Sequence of memapsin 2 (P56817 46-501): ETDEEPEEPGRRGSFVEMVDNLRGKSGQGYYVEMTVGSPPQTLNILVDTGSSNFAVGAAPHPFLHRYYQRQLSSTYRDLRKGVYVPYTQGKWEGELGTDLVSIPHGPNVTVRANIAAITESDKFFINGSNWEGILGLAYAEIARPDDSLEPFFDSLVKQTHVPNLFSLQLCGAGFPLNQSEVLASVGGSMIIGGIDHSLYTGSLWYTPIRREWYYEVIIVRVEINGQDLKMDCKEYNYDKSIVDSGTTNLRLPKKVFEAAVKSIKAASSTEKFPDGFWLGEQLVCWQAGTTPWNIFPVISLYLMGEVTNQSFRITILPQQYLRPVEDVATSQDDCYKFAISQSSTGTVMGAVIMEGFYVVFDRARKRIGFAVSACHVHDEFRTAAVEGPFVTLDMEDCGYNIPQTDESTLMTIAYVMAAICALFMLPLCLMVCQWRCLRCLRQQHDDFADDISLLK

Structure (SMILES)	IC50 [1] [nM]	Ki [2] [nM]
Cc1coc([C@H]2CCCN2C(=O)c2cc(CF)cc(C(=O)N[C@@H](Cc3ccccc3)[C@H](O)CNCc3cccc(C(F)(F)F)c3)c2)n1 [Compound 82, 3-(fluoromethyl)-N-((2S,3R)-3-hydroxy-1-phenyl-4-(3-(trifluoromethyl)benzylamino)butan-2-yl)-5-((R)-2-(4-methyloxazol-2-yl)pyrrolidine-1-carbonyl)benzamide]	< 300	< 100
COc1cc(C(=O)N[C@@H](Cc2ccccc2)[C@H](O)CNCc2cncc(C(C)C)c2)cc(C(=O)N2CCC[C@@H]2c2nc(C)cs2)c1 [Compound 83, N-((2S,3R)-3-hydroxy-4-((5-isopropylpyridin-3-yl)methylamino)-1-phenylbutan-2-yl)-3-methoxy-5-((R)-2-(4-methylthiazol-2-yl)pyrrolidine-1-carbonyl)benzamide]	< 300	< 100
Cc1cc(C(=O)N[C@@H](Cc2ccccc2)[C@H](O)CNCc2cccc(C(F)(F)F)c2)cc(C(=O)N2CCC[C@@H]2c2nc(C)co2)n1 [Compound 84, N-((2S,3R)-3-hydroxy-1-phenyl-4-(3-(trifluoromethyl)benzylamino)butan-2-yl)-2-methyl-6-((R)-2-(4-methyloxazol-2-yl)pyrrolidine-1-carbonyl)isonicotinamide]	< 300	< 100
CNc1cc(CNC[C@@H](O)[C@H](Cc2ccccc2)NC(=O)c2cccc(C(=O)N3CCC[C@@H]3c3nc(C)cs3)c2)cc(C(F)(F)F)c1 [Compound 85, N-((2S,3R)-3-hydroxy-4-(3-(methylamino)-5-(trifluoromethyl)benzylamino)-1-phenylbutan-2-yl)-3-((R)-2-(4-methylthiazol-2-yl)pyrrolidine-1-carbonyl)benzamide]	< 300	< 100
Cc1coc([C@H]2CCCN2C(=O)c2cc(C(=O)N[C@@H](Cc3ccccc3)[C@H](O)CNCc3cncc(C(C)C)c3)cc(-c3ncco3)c2)n1 [Compound 86, N-((2S,3R)-3-hydroxy-4-((5-isopropylpyridin-3-yl)methylamino)-1-phenylbutan-2-yl)-3-((R)-2-(4-methyloxazol-2-yl)pyrrolidine-1-carbonyl)-5-(oxazol-2-yl)benzamide]	< 300	< 100
Cc1coc([C@H]2CCCN2C(=O)c2cc(C(=O)N[C@@H](Cc3ccccc3)[C@H](O)CNCc3cccc(C(F)(F)F)c3)cc(-c3ncco3)c2)n1 [Compound 87, N-((2S,3R)-3-hydroxy-1-phenyl-4-(3-(trifluoromethyl)benzylamino)butan-2-yl)-3-((R)-2-(4-methyloxazol-2-yl)pyrrolidine-1-carbonyl)-5-(oxazol-2-yl)benzamide]	< 300	< 100
Cc1csc([C@H]2CCCN2C(=O)c2cc(C(=O)N[C@@H](Cc3ccccc3)[C@H](O)CNCc3cccc(C(F)(F)F)c3)cc(-c3ccc(F)nc3)n2)n1 [Compound 88, 6′-fluoro-N-((2S,3R)-3-hydroxy-1-phenyl-4-(3-(trifluoromethyl)benzylamino)butan-2-yl)-6-((R)-2-(4-methylthiazol-2-yl)pyrrolidine-1-carbonyl)-2,3′-bipyridine-4-carboxamide]	< 300	101 to 200
COc1cc(C(=O)N[C@@H](Cc2ccccc2)[C@H](O)CNCc2cncc(C(C)C)c2)cc(C(=O)N2CCC[C@@H]2c2nc(C)co2)c1 [Compound 89, N-((2S,3R)-3-hydroxy-4-((5-isopropylpyridin-3-yl)methylamino)-1-phenylbutan-2-yl)-3-methoxy-5-((R)-2-(4-methyloxazol-2-yl)pyrrolidine-1-carbonyl)benzamide]	< 300	< 100
Cc1coc([C@H]2CCCN2C(=O)c2cc(C(=O)N[C@@H](Cc3ccccc3)[C@H](O)CNCc3cncc(C(C)(C)F)c3)cc(-c3ncco3)c2)n1 [Compound 90, N-((2S,3R)-4-((5-(2-fluoropropan-2-yl)pyridin-3-yl)methylamino)-3-hydroxy-1-phenylbutan-2-yl)-3-((R)-2-(4-methyloxazol-2-yl)pyrrolidine-1-carbonyl)-5-(oxazol-2-yl)benzamide]	< 300	< 100
Cc1csc([C@H]2CCCN2C(=O)c2cc(C(=O)N[C@@H](Cc3ccccc3)[C@H](O)CNCc3cccc(C(F)(F)F)c3)cc(-c3cccc(Cl)c3)n2)n1 [Compound 91, 2-(3-chlorophenyl)-N-((2S,3R)-3-hydroxy-1-phenyl-4-(3-(trifluoromethyl)benzylamino)butan-2-yl)-6-((R)-2-(4-methylthiazol-2-yl)pyrrolidine-1-carbonyl)isonicotinamide]	301 to 500	< 100
Cc1coc([C@H]2CCCN2C(=O)c2cc(C(=O)N[C@@H](Cc3ccccc3)[C@H](O)CNCc3cncc(C(C)C)c3)cc(N(C)C)c2)n1 [Compound 92, 3-(dimethylamino)-N-((2S,3R)-3-hydroxy-4-((5-isopropylpyridin-3-yl)methylamino)-1-phenylbutan-2-yl)-5-((R)-2-(4-methyloxazol-2-yl)pyrrolidine-1-carbonyl)benzamide]	< 300	< 100
COc1cc(C(=O)N[C@@H](Cc2ccccc2)[C@H](O)CNCc2cccc(C(F)(F)F)c2)cc(C(=O)N2CCC[C@@H]2c2nc(C)co2)c1 [Compound 93, N-((2S,3R)-3-hydroxy-1-phenyl-4-(3-(trifluoromethyl)benzylamino)butan-2-yl)-3-methoxy-5-((R)-2-(4-methyloxazol-2-yl)pyrrolidine-1-carbonyl)benzamide]	< 300	< 100
Cc1coc([C@H]2CCCN2C(=O)c2cc(C(=O)N[C@@H](Cc3ccccc3)[C@H](O)CNCc3cccc(C(F)(F)F)c3)ccn2)n1 [Compound 94, N-((2S,3R)-3-hydroxy-1-phenyl-4-(3-(trifluoromethyl)benzylamino)butan-2-yl)-2-((R)-2-(4-methyloxazol-2-yl)pyrrolidine-1-carbonyl)isonicotinamide]	< 300	< 100
Cc1coc([C@H]2CCCN2C(=O)c2cc(CF)cc(C(=O)N[C@@H](Cc3ccccc3)[C@H](O)CNCc3cccc(C(C)(C)C)c3)c2)n1 [Compound 95, N-((2S,3R)-4-(3-tert-butylbenzylamino)-3-hydroxy-1-phenylbutan-2-yl)-3-(fluoromethyl)-5-((R)-2-(4-methyloxazol-2-yl)pyrrolidine-1-carbonyl)benzamide]	< 300	< 100
Cc1coc([C@H]2CCCN2C(=O)c2cccc(C(=O)N[C@@H](Cc3ccccc3)[C@H](O)CNCc3cncc(C(C)(F)F)c3)c2)n1 [Compound 102, N-((2S,3R)-4-((5-(1,1-difluoroethyl)pyridin-3-yl)methylamino)-3-hydroxy-1-phenylbutan-2-yl)-3-((R)-2-(4-methyloxazol-2-yl)pyrrolidine-1-carbonyl)benzamide]	< 300	< 100
Cc1coc([C@H]2CCCN2C(=O)c2cccc(C(=O)N[C@@H](Cc3ccccc3)[C@H](O)CNCc3cncc(C(F)(F)F)c3)c2)n1 [Compound 103, N-((2S,3R)-3-hydroxy-1-phenyl-4-((5-(trifluoromethyl)pyridin-3-yl)methylamino)butan-2-yl)-3-((R)-2-(4-methyloxazol-2-yl)pyrrolidine-1-carbonyl)benzamide]	< 300	< 100
